Results from patent US5077034A, “Treatment of tumors with 5-radioiodo-2'-deoxyuridine” (priority 1990, dated 1991).
Values belong to the compound of their own block, whether it stands above or below them.

Tests used:
[1] = tested on: murine ovarian tumor (MOT); assay: scintigraphic imaging in MOT-bearing and control mice; format: in vivo, C3HeB/FeJ mice
[2] = tested on: murine ovarian tumor (MOT); assay: tumor cell survival after treatment of mouse ascites tumor (MOT); format: in vivo, C3HeB/FeJ mice
Description: (§1) The murine ovarian tumor (MOT) used in these experiments arose spontaneously in the ovary of a C3H mouse and is maintained in our laboratories by serial intraperitoneal [i.p.] transplantation in female C3HeB/FeJ mice. We have examined the appropriateness of the i.p. route for IUdR administration as a means to (i) bypass the rapid intrahepatic dehalogenation of this agent, and (ii) obtain high tumor to nontumor ratios. In these experiments, mice were injected with 10^6 tumor cells 24 h prior to the i.p. administration of ^125 IUdR [5 injections, 4 h apart]. […] Tumor-to-normal-tissue ratios derived from th biodistribution results ranged from 20 for organs with actively proliferating cells (for example uterus, intestine, stomach) to over 400 for organs with nondividing cells (brain, heart).
(§2) The tumor used in these experiments is the same murine ovarian tumor desoribed above. We have determined the median survival of mice after i.p. challenge with various tumor cell inocula.
The relatively long survival of tumor-bearing mice facilitates quantitative evaluation of tumor cell killing after treatment with ^125 IUdR and can be used to calculate a cellular survival fraction. We have, therefore, studied tumor cell survival as a function of the dose of ^125 IUdR administered i.p. at 4 h intervals beginning 24 h after tumor cell i.p. inoculation [10^5 -10^6 cells].
When mice are treated with four doses of ^125 IUdR at 4-h intervals and the survival fraction plotted as a function of the dose per treatment, a rapid decrease in the tumor cell survival fraction [10^-3 ] is observed at doses of 20 μCi per treatment with the curve being flat at higher levels [FIG. 6]. When seven consecutive injections of ^125 IUdR are given, a similar steep reduction in tumor cell survival is also observed; the plateau in this regimen occurs at a survival fraction of 10^-5.

[3] = tested on: murine ovarian tumor (MOT); assay: median survival of tumor-bearing (MOT ascites) mice; format: in vivo, C3HeB/FeJ mice; settings: 5 i.p. injections, 4 h intervals, 24 h post i.p. tumor inoculation; FIG. 7; dose-dependent
Description: as §1, §2

cultured mammalian cells = settings: when incorporated into nuclear DNA; in vitro; cited from earlier work
9L gliosarcoma [4] = assay: scintigraphic imaging of intracerebral 9L gliosarcoma-bearing and sham-operated rats
[5] = biodistribution of radioactivity 40 h after intracerebral injection in 9L gliosarcoma-bearing and sham-operated rats; settings: rat, right brain
9L gliosarcoma [6] = assay: as above
[7] = catabolism/dehalogenation of IUdR in vivo; settings: IUdR escaping from the CNS
[8] = later time points (2, 16 and 24 hr), single injection of 300 μCi

Compound: O=c1[nH]c(=O)n([C@H]2C[C@H](O)[C@@H](CO)O2)cc1[123I] [^123 IUdR, 5-[^123 I/^125 I]iodo-2'-deoxyuridine]
abdominal radioactivity, tumor-bearing and control mice ([1]; 1 h after single injection of 300 μCi): focal localization of radioactivity
abdominal activity, animals without tumor [1, 8]: cleared from the abdomen
focal area of abdominal activity, MOT-bearing mice [1, 8]: persisted only in MOT-bearing mice
tumor cell survival fraction as a function of dose ([2]; 5 i.p. injections, 4 h intervals, 24 h post i.p. tumor inoculation, FIG. 8): exponential decrease
median survival of tumor-bearing animals [3]: prolongs median survival
toxicity to cultured mammalian cells (cultured mammalian cells): extremely toxic
activity in the thyroid (9L gliosarcoma [4]; 0.1% potassium iodide in drinking water 48 h prior): No activity was seen
activity within the head region at subsequent intervals (9L gliosarcoma [4]; 12-38 h, all tumor-bearing animals): persistence of the activity
bladder and stomach activities at subsequent intervals (9L gliosarcoma [4]; 12-38 h, both groups, mainly associated with stomach contents and urine): still observed in both groups
activity in the head (9L gliosarcoma [4]; 1 h after intracerebral injection, tumor-bearing [n=16] and sham-operated [n=8]): showed activity in the head
clearance of the activity from the head (9L gliosarcoma [4]; all control (sham-operated) animals): ≤ 12 h
activity in the stomach and the bladder (9L gliosarcoma [4]; scintigraphy, 1 h after intracerebral injection): evident
dehalogenation and excretion of free iodine (9L gliosarcoma [4]; suggested by stomach and bladder activity, 1 h): rapid
tissue uptake at 40 h [5]: 0.36 ± 0.14 %ID/g
tissue uptake at 40 h ([5]; uptake in right brain [injected side], sham-operated controls, 40 h after injection, mean±SD): 0.09 ± 0.02 %ID/g
activity in stomach and bladder (9L gliosarcoma [6]; 40 h, mainly associated with the stomach contents and with urine): high activities
activity in all other normal tissues (9L gliosarcoma [6]; 40 h, with the exception of the stomach and the bladder): low
uptake in a tumor that could be precisely excised (9L gliosarcoma [6]; one animal, 40 h after injection): 12 % of the ID

Compound: O=c1[nH]c(=O)n([C@H]2C[C@H](O)[C@@H](CO)O2)cc1[131I] [IUdR radiolabeled with ^131 I, reference compound]
decrease in tumor cell survival ([2]; equivalent doses): does not result in anv decrease in survival

catabolism/dehalogenation [7]: rapidly
Compound: O=c1[nH]c(=O)n([C@H]2C[C@H](O)[C@@H](CO)O2)cc1I [IUdR, 5-Iodo-2'-deoxyuridine]

Compound: O=c1[nH]c(=O)n([C@H]2C[C@H](O)[C@@H](CO)O2)cc1[125I] [^125 IUdR, 5-[^123 I/^125 I]iodo-2'-deoxyuridine]
tumor cell survival fraction ([2]; four i.p. doses at 4-h intervals, 20 μCi per treatment, curve flat at higher levels): 10^-3
tumor cell survival fraction (plateau) ([2]; seven consecutive i.p. injections): 10^-5
toxicity to cultured mammalian cells (cultured mammalian cells): extremely toxic
